Results on 14 compounds are retold here after US8497240B2 (priority 2006, dated 2013).

Read-outs that look alike come from different tables or passages of the source. Ends that are not written are not given here.

For assay [1] the following is noted: conscious rats, cited from earlier work; for EC(50) nmol/kg for inhibition of gastric emptying: subcutaneous 5 min before gavage.
The next assay relates to pancreatic CCK receptor. The settings on record: cited from earlier work.
The conditions of assay [2]: 30, 60 90 μg, men with IDDM; cited from earlier work.
The nature of assay [3]: Body weight gain in diet-induced-obesity (DIO) mice. It is filed as in vivo, C57BL/6 mice.
Assay [4] is described as follows: Intravenous glucose tolerance test (IVGTT), i.v. infusion. The assay is classed as in vivo, rat. Conditions: for insulin levels prior to the glucose challenge / insulinotropic response to an intravenous glucose challenge (IVGTT assay): 100 pmol/kg/min infusion, rats.
Protocol: In the typical IVGTT assays the test sample was administered by IV infusion. The IV infusion of sample was initiated at t=−30 min and continued through t=90. IV glucose was given at t=0. To determine a duration of action using the IVGTT assay, the sample was injected SC as a single injection at one time point indicated (e.g., t=−240, −120, −60 or −30) prior to administration of glucose. IV glucose was given at t=0.
As described, fed, isoflurane anesthetized HSD male rats were intubated and cannulated via femoral artery and vein and allowed to stabilize for 1 hour. […] At t=0, an i.v. bolus of 5.7 mmol/kg D-glucose was administered over 2 minutes. Samples for glucose measurement and insulin concentrations were taken at various time points before and after (0 to 90 minutes) glucose infusion.
The conditions of assay [5]: for Mouse Food Intake, % basal: dose per compound (4.8 to 25 nmol/Kg).
A short description of assay [6]: Gastric emptying (FIG. 23A). The settings on record: in vivo.
Assay [7] is classed as in vivo, db/db mice. Conditions: for glucose lowering in a diabetic mouse model (FIG. 4): db/db mice, IP.
Protocol: Peptide was injected IP at t=0 immediately following baseline sample into 2-hour fasted db/db mice.
The format of assay [8] is in vivo, NIH/Swiss mice.
Protocol: (§1) In FIG. 3A, bars represent mean±sd, n=6-10. […] Gavage (1.5 g/kg) was given at t=0, Sample was taken at t=30 min. […] In FIG. 3B, points represent mean±sem, n=8-15.
Peptide was injected IP at t=−5 minutes into 4-hour fasted NIH/Swiss female mice. […] In FIG. 17 points represent mean+/−sem. […] Samples were taken at t=60, t=120 and t=180.
For assay [9], the target named is cardiomyocyte Gs-coupled receptors. In words: cAMP production in neonatal cardiomyocytes (HTRF, Gs-coupled receptor activation). The settings on record: for EC50: neonatal rat cardiomyocytes. The assay is classed as cell-based, rat.
Protocol: Activation of cardiomyocyte Gs- and Gi-coupled receptors was determined as a measure of cAMP production.
Neonatal cardiomyocytes were isolated using a commercially available system. […] Sprague Dawley neonatal rats (1-2 days old) were decapitated and the beating heart dissected out into digestion buffer (Cellutron D1 buffer) to dissociate cells. […] The resuspended cells incubated in buffer (Cellutron D3 buffer) for sufficient time to allow optimal dispersion and minimize the need for pipetting to break up clumps. Cells released from the first 2 digestions were discarded since a significant portion of these is red blood cells. Resuspended cells were filtered and allowed to pre-plate for 1 hour on plastic in an incubator in NS media (Cellutron, N.J.) in order to remove fibroblasts. After 1 hour of pre-plating, floating cells are removed and the flask rinsed with NS media. The floating cells and the cells in the rinse media were combined and counted. Residual red blood cells, which are smaller that the cardiac myocytes, were not counted.
At Day 1, the NS media was replaced with fresh NS media.
Dose response was determined.
For Gs assays the positive control was 10 uM forskolin and negative control was buffer. For Gi assays the positive control was buffer and the negative control was 10 uM forskolin.
A short description of assay [10]: Telemetry of circulatory effects in conscious rats. Conditions: 80 nmol/kg intravenous.
The nature of assay [11]: Glucose in rats (summary table). It is filed as in vivo, rat.
Assay [12] is described as follows: Intracellular calcium levels (FIG. 23B).
Assay [13] is described as follows: Body composition in DIO mice. The assay is classed as in vivo, C57BL/6J mice.
Description: During the study, the mice can continue to eat their high-fat diet. Water can be provided ad libitum throughout the study.
DIO mice can be implanted with subcutaneous (SC) intrascapular osmotic pumps to deliver either vehicle (50% dimethylsulfoxide (DMSO) in water) or a compound of the invention. […] Body weights and food intake can be measured over regular intervals throughout the study periods. Respiratory quotient (RQ, defined as CO2 production÷O2 consumption) and metabolic rate can be determined using whole-animal indirect calorimetry (Oxymax, Columbus Instruments, Columbus, Ohio). The mice can be euthanized by isoflurane overdose, and an index of adiposity (bilateral epididymal fat pad weight) measured. Moreover, prior to determination of epididymal weight, body composition (lean mass, fat mass) for each mouse can be analyzed using a Dual Energy X-ray Absorptiometry (DEXA) instrument per manufacturer's instructions (Lunar Piximus, GE Imaging System).
The format of assay [14] is in vivo, NIH/Swiss mice. This is another data set of the same source.
Protocol: as §1
Points represent mean±sem.
Assay [15] in a line: IVGTT duration of action assay (single SC injection before glucose). The assay is classed as in vivo, rat.
Protocol: To determine a duration of action using the IVGTT assay, the sample was injected SC as a single injection at one time point indicated (e.g., t=−240, −120, −60 or −30) prior to administration of glucose. IV glucose was given at t=0.
The conditions of assay [16]: normal men, infusion; cited from earlier work.
A further assay concerns the target human GIP receptor. Description: biochemical. The assay is classed as binding. The settings on record: read-out: GIP RBA.
The mark [17] stands for this setting: 30 minutes, read-out: EC50 of cAMP production (this experiment, FIGS. 18A/18B).
[18] abbreviates: read-out: EC50 of cardiomyocyte Gs-coupled receptor activation (three independent experiments).

With insulin: peptide hormone, the “inhibition of gastric emptying at doses of 100 μg” value (shortened to “inhibition … of 100 μg”) in [1] was “either weakly active or inactive”.

“VIP: vasoactive intestinal peptide (HSDAVFTDNYTRLRKQMAVKKYLNSILN; ends and bridges not checked; UniProt P01282 125-152, looked up)”: in assay [1], the “inhibition … of 100 μg” value was “either weakly active or inactive”.

Regarding “HSDGIFTDSYSRYRKQMAVKKYLAAVLGKRYKQRVKNK-NH2 [PACAP38]”, the “inhibition … of 100 μg” value in assay [1] is “either weakly active or inactive”.

Consider DY(SO3)MGWMDF [CCK-8], for which the “EC(50) nmol/kg for inhibition of gastric emptying” value in assay [1] is 12.8 nmol/kg. Also, the “potency of binding displacement relative to unsulfated CCK-8 or CCK-4” value in the assay on pancreatic CCK receptor is 1000-5000.

Consider “neuropeptide Y: peptide hormone of the pancreatic polypeptide family”, for which, in assay [1], the “inhibition … of 100 μg” value was “either weakly active or inactive”.

Consider `CC[C@H](C)[C@H](NC(=O)[C@@H]1CCCN1C(=O)CNC(=O)[C@H](Cc1ccccc1)NC(=O)[C@H](CC(N)=O)NC(=O)[C@H](CC(N)=O)NC(=O)[C@H](CO)NC(=O)[C@H](CO)NC(=O)[C@H](Cc1c[nH]cn1)NC(=O)[C@@H](NC(=O)[C@H](CC(C)C)NC(=O)[C@H](Cc1ccccc1)NC(=O)[C@H](CC(N)=O)NC(=O)[C@H](C)NC(=O)[C@H](CC(C)C)NC(=O)[C@H](CCCNC(=N)N)NC(=O)[C@H](CCC(N)=O)NC(=O)[C@@H](NC(=O)[C@H](C)NC(=O)[C@@H]1CSSC[C@H](NC(=O)[C@@H](N)CCCCN)C(=O)N[C@@H](CC(N)=O)C(=O)N[C@@H]([C@@H](C)O)C(=O)N[C@@H](C)C(=O)N[C@@H]([C@@H](C)O)C(=O)N1)[C@@H](C)O)C(C)C)C(=O)N[C@@H](CC(C)C)C(=O)N1CCC[C@H]1C(=O)N1CCC[C@H]1C(=O)N[C@H](C(=O)N[C@@H](CC(N)=O)C(=O)N[C@H](C(=O)NCC(=O)N[C@@H](CO)C(=O)N[C@@H](CC(N)=O)C(=O)N[C@H](C(=O)N[C@@H](Cc1ccc(O)cc1)C(N)=O)[C@@H](C)O)C(C)C)[C@@H](C)O` [pramlintide, ^25,28,29Pro-h-amylin], for which, in assay [2], the “half-emptying time of the stomach” value is on record as “approximately doubled the half-emptying time of the stomach”.

Regarding “YAEGTFISDYSIAMDKIHQQDFVNWLLAQKGKKNDWKHNITQ-OH [GIP, reference compound]”, in [3] (DIO mice), the “BWt (mDIO)” value is reported as “not active”. Further, the “weight loss / body weight change in diet-induced-obese mice” value in assay [3] (mouse, in vivo) is on record as “did not cause weight loss”. Moreover, in assay [4], the “insulin levels prior to the glucose challenge” value was “significant rise in insulin levels” and the “insulinotropic response to an intravenous glucose challenge (IVGTT assay)” value is “significant enhancement of the insulinotropic response”. Besides, the “food intake” value in assay [5] (mice, peptide injected IP) is given as “not active”. Moreover, the food intake result in [5] (mouse, in vivo, ip) is “did not acutely inhibit food intake”. Further, the “inhibition … of 100 μg” value in assay [1] was “either weakly active or inactive”. For the same compound, the “Gastric Emptying” value in assay [6] is recorded as “not active”. Further, in assay [7], the “glucose lowering in a diabetic mouse model (FIG. 4)” value is “modest and wanes over time”. Besides, the OGTT result in assay [8] (mice, effect on glucose) is “decreases”. In addition, in assay [8] (mouse, in vivo), the OGTT response is listed as −10%. Besides, in assay [9] (setting [17]), the EC50 was found to be 9.1 nM. The EC50 in assay [9] (setting [18]) was 15.6 nM. In assay [10], the dP/dt entry was “increased dP/dt similarly” and the “effect on mean arterial pressure” value is “had no effect”. For the same compound, the Glucose rats entry in assay [11] is listed as “not active”. The iCa result in assay [12] is reported as “not active”. Also, the “Body Comp (mDIO)” value in [13] (DIO mice) is given as “No effect on lean mass”. In assay [14] (mice), the Glucose mice entry is recorded as “weak”. The “basal glucose lowering (% maximal decrease)” value in assay [14] (mouse, in vivo) stood at 0%.

Turning to “Y(D-Ala)EGTFISDYSIAMDKIHQQDFVNWLLAQKPSSGAPPPS-NH2 [Compound 0601GIP3794]”, the “Duration of action in assay (insulin AUC 0-30 min)” value (from here on “Duration of action in assay”) in assay [15] (SC inj T = −30 min) is given as 198. Besides, the “Duration of action in assay” value in assay [15] (SC inj T = −60 min) was 159. Besides, in assay [15] (SC inj T = −120 min), the “Duration of action in assay” value amounted to 204. Moreover, the “Duration of action in assay” value in [15] (SC inj T = −240 min) was determined as 79. In addition, the “DOA (duration of action, compared to 0601GIP3794)” value in [15] (time not stated) was “=794”. In [4], the “insulin levels prior to the glucose challenge” value was “significant rise in insulin levels” and the “insulinotropic response to an intravenous glucose challenge (IVGTT assay)” value was “significant enhancement of the insulinotropic response”. Moreover, the “IVGTT > = < Compared to 0601GIP3794” value in assay [4] (rat, in vivo) is reported as “=”. For the same compound, the “Standard IVGTT assay IV infusion (insulin AUC 0-30 min)” value in assay [4] (rat, in vivo, iv) worked out at 249. Besides, the food intake entry in [5] (mouse, in vivo, ip) is reported as “did not acutely inhibit food intake”. For the same compound, the “Basal Glucose Lowering in db/db” value in assay [7] (80 nmol/kg, t = 120) is recorded as −33%, 80 nmol/kg,. Moreover, the “glucose lowering in a diabetic mouse model (FIG. 4)” value in assay [7] is “pronounced and long-acting effect in lowering glucose”. Also, in assay [8] (10 nmol/kg), the “OGTT/GL (%)” value is on record as −17% 10 nmol/kg. The “OGTT/GL (%)” value in assay [8] (350 nmol/kg) is listed as −21% 350 nmol/kg,. In assay [8] (mouse, in vivo), the “OGTT (compared to 0601GIP3794)” value is reported as “=794”, the “OGTT ED50” value was “ED50 ~2 nmol/kg,” and the OGTT response is given as −21%. For the same compound, the EC50 in assay [9] (setting [17]) came out at 11.7 nM. For the same compound, the EC50 in [9] (setting [18]) came to 29.8 nM. In assay [10], the dP/dt entry is “increased dP/dt similarly”; the “effect on heart rate” value is given as “transient relative to GIP”; the “effect on mean arterial pressure” value was “decreased mean arterial pressure”; the “systolic and diastolic pressures” value was “sustained lowering of systolic and diastolic pressures”. The body composition entry in assay [13] (mouse, in vivo) was “slight decrease in percentage body fat with an increase in body protein without a concomitant reduction in body weight”. Besides, the “Basal Glucose Lowering at 80 nmol/Kg” value in assay [14] (80 nmol/kg, AUC180) is reported as −9%, AUC180. In [14] (80 nmol/kg, AUC240), the “Basal Glucose Lowering at Peptide Conc. of 80 nmol/kg” value is given as −7 to −20%,. Further, in [14] (2-hour fasted NIH/Swiss mice, IP), the “glucose lowering profile over 240 min (FIGS. 8-10)” value was “gradually increasing activity that peaks at t=120 min, and is more sustained than native GIP or its D-Ala2 version”. The “glucose lowering in normal mice (FIGS. 3A and 3B)” value in assay [14] (NIH/Swiss mice, IP) is given as “significantly more efficacious than full length GIP”. Moreover, in assay [14] (mouse, in vivo), the “GL (glucose lowering, compared to 0601GIP3794)” value is “=794” and the “basal glucose lowering (% maximal decrease)” value is −20%.

Take HAEGTFTSDVSSYLEGQAAKEFIAWLVKGR [GLP-1]: in assay [9], the “cAMP activity in cardiomyocytes” value was “very low to no significant activity”.

In the case of glucagon: peptide hormone, the “inhibition … of 100 μg” value in assay [1] is “either weakly active or inactive”.

For the compound “adrenomedullin: amylin family peptide hormone (YRQSMNNFQGLRSFGCRFGTCTVQKLAHQIYQFTDKDKDNVAPRSKISPQGY; ends and bridges not checked; cysteine pairing not given here; UniProt P35318 95-146, looked up)”, the “inhibition … of 100 μg” value in assay [1] is “either weakly active or inactive”.

On to BNP: brain natriuretic peptide, for which, in assay [16], the “increase in sodium excretion” value was 2 fold; the “reduction in plasma renin, angiotensin II and aldosterone secretion” value was 50%.

Regarding “KCNTATCATQRLANFLVRSSNNLGPVLPPTNVGSNTY [rat amylin]”, the “Mouse Food Intake, % basal” value in assay [5] (30 min) is listed as −58 % basal; in [5] (60 min) it was −40 % basal; in assay [5] (120 min), −36.5 % basal; in [5] (180 min), −35.5 % basal. Also, the food intake entry in assay [5] (mouse, in vivo, ip) is recorded as “significant decrease in food intake within 30 min”. Also, the “EC(50) nmol/kg for inhibition of gastric emptying” value in assay [1] is 0.23 nmol/kg.

`CC[C@H](C)[C@H](NC(=O)[C@H](CO)NC(=O)[C@H](Cc1ccc(O)cc1)NC(=O)[C@H](CC(=O)O)NC(=O)[C@H](CO)NC(=O)[C@@H](NC(=O)[C@H](Cc1ccccc1)NC(=O)[C@@H](NC(=O)CNC(=O)[C@H](CCC(=O)O)NC(=O)[C@@H](C)NC(=O)[C@@H](N)Cc1ccc(O)cc1)[C@@H](C)O)[C@@H](C)CC)C(=O)N[C@@H](C)C(=O)N[C@@H](CCSC)C(=O)N[C@@H](CC(=O)O)C(=O)N[C@@H](CCCCN)C(=O)N[C@H](C(=O)N[C@@H](Cc1c[nH]cn1)C(=O)N[C@@H](CCC(N)=O)C(=O)N[C@@H](CCC(N)=O)C(=O)N[C@@H](CC(=O)O)C(=O)N[C@@H](Cc1ccccc1)C(=O)N[C@H](C(=O)N[C@@H](CC(N)=O)C(=O)N[C@@H](Cc1c[nH]c2ccccc12)C(=O)N[C@@H](CC(C)C)C(=O)N[C@@H](CC(C)C)C(=O)N[C@@H](C)C(=O)N[C@@H](CCC(N)=O)C(=O)N[C@@H](CCCCN)C(=O)N[C@@H](CO)C(=O)NCC(=O)N[C@@H](C)C(=O)N1CCC[C@H]1C(=O)N1CCC[C@H]1C(=O)N1CCC[C@H]1C(=O)N[C@@H](CO)C(N)=O)C(C)C)[C@@H](C)CC` [0601GIP4192]: the IC50 on human GIP receptor came to 7 nM. Also, in assay [8] (350 nmol/kg), the “OGTT/GL (%)” value is −16%.
